# pEC50: −log10 of the molar value.
# Legend:
# hCB2R = molecular target: T1, hCB2R (Homo sapiens, UniProt P34972); assay: PathHunter β-arrestin2 recruitment assay in CHO cells; type: cell-based
# T1 construct: host or cells: HitHunter CHO-K1 cells
# Method: Compounds FG158a, FG160a, FG161a, and LV62 were also evaluated for their ability to recruit β-arrestin2, since G protein-coupled receptors also interact with β-arrestin, which facilitates receptor internalization, recycling, degradation, and signaling.
# CHO cells stably expressing hCB1R or hCB2R were maintained at 37 °C and 5% CO2 in Gibco Ham’s F-12 nutrient mix (Fisher Scientific, Loughborough, UK ) supplemented with 2 mM L-glutamine, 10% fetal bovine serum (FBS), 0.6% penicillin−streptomycin (Fisher Scientific, Loughborough UK), and the disulfate salt of geneticin (G418) as previously described (Sigma-Aldrich, Poole, UK). For subsequent radioligand displacement assays, membranes were prepared by scraping cells from flasks, centrifuging the cells, and storing the cell pellet at −20 °C. When required for us, cell pellets were defrosted and diluted in tris buffer (50 mM Tris-HCl and 50 mM Tris-base). As we have described in previous studies, HitHunter (cAMP) and PathHunter (βarrestin2) CHO-K1 cells stably expressing hCB1R or hCB2R from DiscoveRx® (Eurofins, Fremont, CA, USA) were maintained at 37 °C, 5% CO2 in F-12 DMEM containing 10% FBS and 1% Pen/Strep with 800 µg/mL geneticin (HitHunter) or 800 µg/mL G418 and 300 µg/mL hygromycin B (PathHunter).
# The quantification of β-arrestin2 recruitment using the DiscoveRx PathHunter assay has been described by our group previously and is summarized here.. Twenty thousand cells/well were grown overnight in Opti-MEM containing 1% FBS at 37 °C and 5% CO2 in low-volume 96 well plates. The next day, cells were treated with compounds for 90 min at 37 °C. Detection solution was added to cells according to the manufacturer’s directions (DiscoveRx) and cells were stored for 60 min at room temperature. After this incubation, chemiluminescence was quantified on a Cytation5 plate reader (top read, gain 200, integration time 10,000 ms).
# Estimates of Ki, EC50, and Emax were determined using non-linear regression three-parameters (GraphPad, Prism, v. 9.0).
# Data are fitted to a non−linear regression (three parameter model, GraphPad v. 9.0). Data are mean ± S.E.M. of 6 independent experiments performed in triplicate.
# ERK1/2 = ERK1/2 Western blot and densitometric analysis; type: cell-based, human; conditions: SH-SY5Y cells
# Text: Among the CB2R agonists tested, we selected FG158a as it provides the best dose–response curve in SH-SY5Y cells (Figure 4B). The effect of CB2R agonists on the ERK pathway has been previously detected in other tumor models such as a breast cancer model. The dysregulation of the ERK/MAPK pathway is crucial in neuroblastoma. […] We addressed the effect of FG158a on MAPK kinase activation by the evaluation of its component ERK1/2 in the presence and in the absence of the antagonist SR144528 (Figure 6).
# After the treatment with FG158a (20 μM) in the presence and absence of SR144528 (added 1 h before the CB2R agonist at the concentration of 1 µM), SHSY5Y cells were centrifuged and cell pellets were lysed in R.I.P.A. buffer (50 mM Tris-HCl, pH = 7.4; 150 mM NaCl; […], 1% NP-40; 0.5% sodium deoxycholate; 0.1% SDS; 1:100 phosphatase and protease inhibitors, both added before the lysis). Samples were centrifuged (17,900× g 20′ at 4 °C) and protein concentration was determined by Bio-Rad Protein Assay (Bio-Rad, Berkeley, CA, USA) as previously described. […]
# Figure 6 FG158a inhibition of ERK1/2 is mediated by CB2R. […] The statistical analysis was performed by parametric two tailed t-test (* p < 0.05 FG158a calculated with respect to the CTR; ^& p < 0.01 FG158a+SR144528 calculated with respect to FG158a).
# T1 sequence (P34972 whole entry): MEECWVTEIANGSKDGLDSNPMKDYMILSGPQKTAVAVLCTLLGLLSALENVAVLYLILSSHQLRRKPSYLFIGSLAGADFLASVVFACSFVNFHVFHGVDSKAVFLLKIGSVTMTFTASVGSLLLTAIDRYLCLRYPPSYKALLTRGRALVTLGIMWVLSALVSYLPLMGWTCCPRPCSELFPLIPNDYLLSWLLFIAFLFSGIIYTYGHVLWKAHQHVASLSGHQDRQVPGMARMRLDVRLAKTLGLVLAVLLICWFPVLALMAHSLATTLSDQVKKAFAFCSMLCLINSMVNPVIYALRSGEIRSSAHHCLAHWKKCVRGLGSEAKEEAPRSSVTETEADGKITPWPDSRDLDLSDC
smiles,measurement,setting,value
"CC1CCC(NC(=O)c2cc3cccnc3n(CCCCCBr)c2=O)CC1 (stereo not shown) [FG158a, 1-(5-bromopentyl)-N-(4-methylcyclohexyl)-2-oxo-1,2-dihydro-1,8-naphthyridine-3-carboxamide]",pEC50,hCB2R,< 5.00
same,"β-Arrestin2 Recruitment Emax (% CP55,940) ± S.E.M","hCB2R; CHO cells expressing human CB2R, 90 min","46 ± 1.8 % CP55,940"
same,effect on ERK1/2 expression in presence of SR144528,ERK1/2; 20 µM FG158a + SR144528 1 µM added 1 h before,reversed the inhibitory effect
same,effect on ERK1/2 expression,"ERK1/2; 20 µM, vs untreated control cells",inhibited ERK1/2 expression

# From publication PMC9101764, “Synthesis and In Vitro Characterization of Selective Cannabinoid CB2 Receptor Agonists: Biological Evaluation against Neuroblastoma Cancer Cells” (Molecules, 2022)
